In brackets after ≈: the same amount, converted by molar mass. Activity calls are given as the source filed them. The calls are words filed in the database; no cut-off is given here.
Columns and labels:
[1] = Inhibition of DprE1 (unknown origin) preincubated with FAD followed by compound addition and measured after 2 mins by fluorescence based microplate reader; design: species or system Bacteria
[2] = Binding affinity to recombinant DprE1 (unknown origin) assessed as dissociation constant incubated for 10 mins by MST analysis; design: species or system Bacteria
[3] = Cytotoxicity against human THP-1 cells assessed as reduction in cell viability incubated for 24 hrs by CCK-8 assay; type: toxicity, cell-based
[4] = system: Mycobacterium tuberculosis; assay: Antibacterial activity against Mycobacterium tuberculosis H37Ra assessed as inhibition of bacterial growth at 10 uM incubated for 3 weeks by absorbance based microplate reader relative to control; type: functional; conditions: 504 h
[5] = Selectivity index, ratio of CC50 for cytotoxicity against human THP-1 cells to MIC50 for antibacterial activity against Mycobacterium tuberculosis H37Ra; type: toxicity, cell-based; conditions: read-out: Selectivity Index
[6] = system: Mycobacterium tuberculosis; assay: Antibacterial activity against Mycobacterium tuberculosis H37Ra assessed as inhibition of bacterial growth incubated for 1 weeks by absorbance based microplate reader; type: functional; conditions: 168 h
[7] = system: Mycobacterium tuberculosis; assay: Antibacterial activity against Mycobacterium tuberculosis H37Ra infected in PMA-differentiated human THP-1 cells assessed as reduction in colony forming units measured after 3 weeks by absorbance based assay; type: functional, organism-based; conditions: dose 10-100 µM
[8] = system: Mycobacterium tuberculosis; assay: Antibacterial activity against Mycobacterium tuberculosis H37Ra assessed as inhibition of bacterial growth at 50 uM incubated for 3 weeks by absorbance based microplate reader relative to control; type: functional; conditions: 504 h
[9] = system: Mycobacterium tuberculosis; assay: Antibacterial activity against Mycobacterium tuberculosis H37Rv assessed as inhibition of bacterial growth at 10 uM incubated for 3 weeks by absorbance based microplate reader relative to control; type: functional; conditions: 504 h
[10] = Cytotoxicity against human THP-1 cells assessed as cell viability at 200 uM incubated for 24 hrs by CCK-8 assay relative to control; type: toxicity, cell-based; conditions: read-out: Activity
[11] = system: Mycobacterium tuberculosis; assay: Antibacterial activity against Mycobacterium tuberculosis H37Rv infected in PMA-differentiated human THP-1 cells assessed as reduction in colony forming units at 100 uM measured after 3 weeks by absorbance based assay; type: functional, organism-based

O=C1NC(=O)N(Cc2ccccc2)C(=O)/C1=C/NNC(=O)c1ccc(O)cc1
IC50 [1]: 8.56 µM

O=C1NC(=O)N(C2CC2)C(=O)/C1=C/NNC(=O)c1ccncc1
Kd [2]: 2.23 µM | CC50 at 24 h [3]: > 200 µM | inhibition at 10 µM [4]: 100% | selectivity ratio [5]: > 179 | MIC50 [6]: 1.12 µM (≈ 0.353 µg/mL) | Activity [7]: Dose-dependent-effect | inhibition at 50 µM [8]: 100% | inhibition at 10 µM [9]: 100% | viability at 24 h, 200 µM [10]: 100% | IC50 [1]: 20.3 µM

COCC(=O)NN/C=C1\C(=O)NC(=O)N(Cc2ccccc2)C1=O
IC50 [1]: > 100 µM

COc1ccc(C(=O)NN/C=C2\C(=O)NC(=O)N(Cc3ccccc3)C2=O)cc1
IC50 [1]: 3.03 µM

CC(=O)Nc1ccc(C(=O)NN/C=C2\C(=O)NC(=O)N(Cc3ccccc3)C2=O)cc1
IC50 [1]: 27.6 µM

CC(=O)NN/C=C1\C(=O)NC(=O)N(Cc2ccccc2)C1=O
IC50 [1]: > 100 µM

CC[C@@H](C)N1C(=O)NC(=O)/C(=C\NNC(=O)c2ccccc2)C1=O
IC50 [1]: 13.4 µM

O=C1NC(=O)N(Cc2ccccc2)C(=O)/C1=C/NNC(=O)c1cccc2ccccc12
IC50 [1]: 23.3 µM

O=C1NC(=O)N(C2CCCCC2)C(=O)/C1=C/NNC(=O)c1ccncc1
CC50 at 24 h [3]: > 200 µM | inhibition at 10 µM [4]: 100% | selectivity ratio [5]: > 37.5 | MIC50 [6]: 5.34 µM (≈ 1.91 µg/mL) | inhibition at 50 µM [8]: 100% | inhibition at 10 µM [9]: 100% | viability at 24 h, 200 µM [10]: 100% | IC50 [1]: 16.7 µM

O=C(Cc1ccccc1)NN/C=C1\C(=O)NC(=O)N(Cc2ccccc2)C1=O
IC50 [1]: 12.3 µM

O=C1NC(=O)N(Cc2ccccc2)C(=O)/C1=C/NNC(=O)c1cccc(O)c1
IC50 [1]: 6.49 µM

O=C1NC(=O)N(Cc2ccccc2)C(=O)/C1=C/NNC(=O)c1ccncc1
CC50 at 24 h [3]: > 200 µM | inhibition at 10 µM [4]: 100% | selectivity ratio [5]: > 63.5 | MIC50 [6]: 3.15 µM (≈ 1.15 µg/mL) | inhibition at 50 µM [8]: 100% | inhibition at 10 µM [9]: 100% | viability at 24 h, 200 µM [10]: 100% | IC50 [1]: 10.2 µM

Nc1cccc(C(=O)NN/C=C2\C(=O)NC(=O)N(Cc3ccccc3)C2=O)c1
IC50 [1]: 4.36 µM

O=C1NC(=O)N(C2CC2)C(=O)/C1=C/NNC(=O)c1ccnc2ccccc12
IC50 [1]: 14.3 µM

O=C1NC(=O)N(Cc2ccccc2)C(=O)/C1=C/NNC(=O)c1cccc([N+](=O)[O-])c1
IC50 [1]: 42.5 µM

C#CCN1C(=O)NC(=O)/C(=C\NNC(=O)c2ccncc2)C1=O
Kd [2]: 0.068 µM | CC50 at 24 h [3]: > 200 µM | inhibition at 10 µM [4]: 100% | selectivity ratio [5]: > 187 | MIC50 [6]: 1.07 µM (≈ 0.336 µg/mL) | Activity [7]: Dose-dependent-effect; Best Bactericidal Effect Observed | inhibition at 50 µM [8]: 100% | inhibition at 10 µM [9]: 100% | Activity [11]: Active | viability at 24 h, 200 µM [10]: 100% | IC50 [1]: 12.7 µM

C=CCN1C(=O)NC(=O)/C(=C\NNC(=O)c2ccccc2)C1=O
IC50 [1]: 15.3 µM

CCOCC(=O)NN/C=C1\C(=O)NC(=O)N(Cc2ccccc2)C1=O
IC50 [1]: > 100 µM

COc1cccc(C(=O)NN/C=C2\C(=O)NC(=O)N(Cc3ccccc3)C2=O)c1
IC50 [1]: 6.53 µM

O=C1NC(=O)N(Cc2ccccc2)C(=O)/C1=C/NNC(=O)c1ccnc2ccccc12
IC50 [1]: 13.8 µM

CC(C)(C)C(=O)NN/C=C1\C(=O)NC(=O)N(Cc2ccccc2)C1=O
IC50 [1]: > 100 µM

CC(C)N1C(=O)NC(=O)/C(=C\NNC(=O)c2ccncc2)C1=O
CC50 at 24 h [3]: > 200 µM | inhibition at 10 µM [4]: 100% | selectivity ratio [5]: > 114 | MIC50 [6]: 1.75 µM (≈ 0.555 µg/mL) | inhibition at 50 µM [8]: 100% | inhibition at 10 µM [9]: 100% | viability at 24 h, 200 µM [10]: 100% | IC50 [1]: 47.4 µM

Cc1ccc(S(=O)(=O)C(=O)NN/C=C2\C(=O)NC(=O)N(Cc3ccccc3)C2=O)cc1
IC50 [1]: 62 µM

C=CCN1C(=O)NC(=O)/C(=C\NNC(=O)c2cccc3ncccc23)C1=O
IC50 [1]: 11.1 µM

O=C1NC(=O)N(CCc2ccccc2)C(=O)/C1=C/NNC(=O)c1cccnc1
IC50 [1]: 24.8 µM

O=C1NC(=O)N(Cc2ccccc2)C(=O)/C1=C/NNC(=O)c1ccc2ccccc2c1
IC50 [1]: 10.8 µM

CC(=O)NC[C@H]1CN(c2ccc(N3CCOCC3)c(F)c2)C(=O)O1 [LINEZOLID]
selectivity ratio [5]: > 120 | MIC50 [6]: 1.67 µM (≈ 0.563 µg/mL)

O=C(CCl)NN/C=C1\C(=O)NC(=O)N(Cc2ccccc2)C1=O
IC50 [1]: > 100 µM

O=C1NC(=O)N(C2CCCCC2)C(=O)/C1=C/NNC(=O)c1cccnc1
IC50 [1]: 30.4 µM

CC[C@@H](C)N1C(=O)NC(=O)/C(=C\NNC(=O)c2ccncc2)C1=O
CC50 at 24 h [3]: > 200 µM | inhibition at 10 µM [4]: 100% | selectivity ratio [5]: > 68.1 | MIC50 [6]: 2.5 µM (≈ 0.83 µg/mL) | inhibition at 50 µM [8]: 100% | inhibition at 10 µM [9]: 100% | viability at 24 h, 200 µM [10]: 100% | IC50 [1]: 50.4 µM

CCN1C(=O)NC(=O)/C(=C\NNC(=O)c2ccncc2)C1=O
CC50 at 24 h [3]: > 200 µM | inhibition at 10 µM [4]: 100% | selectivity ratio [5]: > 147 | MIC50 [6]: 1.36 µM (≈ 0.414 µg/mL) | inhibition at 50 µM [8]: 100% | inhibition at 10 µM [9]: 100% | viability at 24 h, 200 µM [10]: 100% | IC50 [1]: 52.3 µM

O=C(CO)NN/C=C1\C(=O)NC(=O)N(Cc2ccccc2)C1=O
IC50 [1]: > 100 µM

O=C1NC(=O)N(Cc2ccccc2)C(=O)/C1=C/NNC(=O)c1cccc(Cl)c1
IC50 [1]: 24.3 µM

O=C1NC(=O)N(C2CCC2)C(=O)/C1=C/NNC(=O)c1ccncc1
CC50 at 24 h [3]: > 200 µM | inhibition at 10 µM [4]: 100% | selectivity ratio [5]: > 84.2 | MIC50 [6]: 2.37 µM (≈ 0.782 µg/mL) | inhibition at 50 µM [8]: 100% | inhibition at 10 µM [9]: 100% | viability at 24 h, 200 µM [10]: 100% | IC50 [1]: 18.1 µM

O=C1NC(=O)N(Cc2ccccc2)C(=O)/C1=C/NNC(=O)c1cccnc1
IC50 [1]: 28.8 µM

C=CCN1C(=O)C(=CNNC(=O)c2ccncc2)C(=O)N(CC=C)C1=O
CC50 at 24 h [3]: > 200 µM | inhibition at 10 µM [4]: 100% | selectivity ratio [5]: > 69.2 | MIC50 [6]: 2.89 µM (≈ 1.03 µg/mL) | inhibition at 50 µM [8]: 100% | inhibition at 10 µM [9]: 100% | viability at 24 h, 200 µM [10]: 100% | IC50 [1]: > 100 µM

O=C1NC(=O)N(Cc2ccccc2)C(=O)/C1=C/NNC(=O)c1ccccc1
IC50 [1]: 7.25 µM

CN1C(=O)NC(=O)/C(=C\NNC(=O)c2ccncc2)C1=O
CC50 at 24 h [3]: > 200 µM | inhibition at 10 µM [4]: 100% | selectivity ratio [5]: > 143 | MIC50 [6]: 1.4 µM (≈ 0.405 µg/mL) | inhibition at 50 µM [8]: 100% | inhibition at 10 µM [9]: 100% | viability at 24 h, 200 µM [10]: 100% | IC50 [1]: 50 µM

O=C1NC(=O)C(=CNNC(=O)c2ccncc2)C(=O)N1
CC50 at 24 h [3]: > 200 µM | inhibition at 10 µM [4]: 100% | selectivity ratio [5]: > 112 | MIC50 [6]: 1.78 µM (≈ 0.491 µg/mL) | inhibition at 50 µM [8]: 100% | inhibition at 10 µM [9]: 100% | viability at 24 h, 200 µM [10]: 100% | IC50 [1]: > 100 µM

O=C1NC(=O)N(c2ccccc2)C(=O)/C1=C/NNC(=O)c1cccnc1
IC50 [1]: 32.1 µM

C=CCN1C(=O)NC(=O)/C(=C\NNC(=O)c2ccnc3ccccc23)C1=O
IC50 [1]: 12.8 µM

O=C1NC(=O)N(CCO)C(=O)/C1=C/NNC(=O)c1ccncc1
Kd [2]: 0.135 µM | CC50 at 24 h [3]: > 200 µM | inhibition at 10 µM [4]: 100% | selectivity ratio [5]: > 166 | MIC50 [6]: 1.2 µM (≈ 0.384 µg/mL) | Activity [7]: Dose-dependent-effect | inhibition at 50 µM [8]: 100% | inhibition at 10 µM [9]: 100% | viability at 24 h, 200 µM [10]: 100% | IC50 [1]: 45.7 µM

O=C1NC(=O)N(C2CC2)C(=O)/C1=C/NNC(=O)c1cccc2ncccc12
IC50 [1]: 15.2 µM

O=C1NC(=O)N(Cc2ccccc2)C(=O)/C1=C/NNC(=O)c1ccc(Cl)cc1
IC50 [1]: 23.9 µM

CC(=O)Nc1cccc(C(=O)NN/C=C2\C(=O)NC(=O)N(Cc3ccccc3)C2=O)c1
IC50 [1]: 20.7 µM

O=C1NC(=O)N(Cc2ccccc2)C(=O)/C1=C/NNC(=O)c1cccc2ncccc12
IC50 [1]: 12.6 µM

Source: ChEMBL document CHEMBL6109079, “Discovery of novel pyrimidinetrione derivatives as DprE1 inhibitors with potent antimycobacterial activities” (Eur J Med Chem, 2025)
